ChEMBL document CHEMBL3507680, “University of Dundee, Gates Library screen for HepG2 cell viability”

Assay: Human HepG2 cell viability assay in 384 well format
Type: toxicity, cell-based
Set-up: dose 125 nL, time 70.5 hour; cytotoxicity at 70.5 h: concentration not given beside the values
Conditions: HepG2 cells, read-out: Inhibition

SMILES	cytotoxicity at 70.5 h
O=c1ccc(-n2cccn2)nn1CCNS(=O)(=O)c1ccc(F)c(Cl)c1	2.64%
O=c1ccc(-n2ccnc2)nn1CCNS(=O)(=O)c1ccc(Cl)s1	3.04%
O=c1ccc(-n2ccnc2)nn1CCNS(=O)(=O)c1ccccc1Cl	-1.86%
COc1ccc(-n2nnc(C(=O)NCC3CCCCC3)n2)cc1	-12.2%
NC(=O)c1nnn(-c2ccc(Cl)cc2)n1	-5.31%
O=C(c1nnn(-c2ccc(C(F)(F)F)cc2)n1)N1CC(O)C1	-8.07%
CN(C)C(=O)c1nnn(-c2ccc(Br)cc2)n1	28.4%
Cc1nccn1-c1ccc(C(=O)NCC(F)(F)F)nn1	-1.99%
COc1ccccc1C(O)Cn1cc(C(=O)NCc2ccco2)nn1 (centres undefined)	0.751%
CC(C)NC(=O)NCCn1nc(C(F)(F)F)n(C)c1=O	-4.05%
Cc1ccccc1NC(=O)NCCn1nc(C(F)(F)F)n(C)c1=O	-2.02%
O=C(CN1CCC(c2nnc(C(F)(F)F)o2)CC1)Nc1cccnc1	-3.9%
O=C(CN1CCC(c2nnc(C(F)(F)F)o2)CC1)NCc1ccccc1	-0.907%
O=C(c1nnn(-c2ccccc2F)c1-c1ccccn1)N1CCSCC1	-0.794%
COC(=O)N1CCc2ccccc2C1C(=O)NCC(F)(F)F (centres undefined)	-5.95%
O=C(NC1CCN(c2ccc(-c3ccccc3F)nn2)C1)c1ccc[nH]1 (centres undefined)	10.6%
O=C(NC1CCN(c2ccc(-c3ccccc3F)nn2)C1)C1CCC1 (centres undefined)	1.72%
Cc1noc(-c2ccc(N3CCCC(C(N)=O)C3)nc2)n1 (centres undefined)	-0.883%
CN1CCN(c2cc(NC(=O)Cn3ccc4ccccc43)ncn2)CC1	1.47%
O=C(Nc1cc(N2CCOCC2)ncn1)c1cnccn1	-3.66%
CCOc1ccc(NC(=O)Nc2cc(N3CCCCC3)ncn2)cc1	-1.28%
O=C(Cc1c(F)cccc1Cl)Nc1cc(N2CCCC2)ncn1	-2.78%
COc1ncccc1C(=O)NCCn1cnc(C)cc1=O	-2.32%

SMILES	cytotoxicity at 70.5 h
COc1ccc(S(=O)(=O)NCCn2cnc(C)cc2=O)cc1C	-9.08%
O=C(NCCn1cnc(C2CCCC2)cc1=O)c1ccc(=O)[nH]n1	-0.636%
CC(C)NC(=O)NCCn1cnc(C2CCCC2)cc1=O	-6.52%
Cc1ccc(NC(=O)NCCn2cnc(C)c(C)c2=O)cc1F	-1.25%
Cc1ncn(CCNC(=O)Nc2ccc(OC(F)(F)F)cc2)c(=O)c1C	-3.32%
Cn1nc(N2CCCC(C(=O)Nc3nc4ccccc4[nH]3)C2)ccc1=O (centres undefined)	-10%
COc1cc(NC(=O)C2CC(=O)N(c3cccc(F)c3)C2)ncn1 (centres undefined)	-3.43%
COc1cccc2sc(N3CC(OC(C)=O)C3)nc12	-11.2%
COC(=O)c1ccc(S(=O)(=O)NCC(O)c2sccc2C)cc1 (centres undefined)	-2.62%
COCC(C)(O)CNC(=O)c1cc(-c2ccc(F)cc2)nn1C (centres undefined)	1.82%
COC(=O)c1ccc(S(=O)(=O)NCC(C)(O)c2cccs2)cc1 (centres undefined)	-9.34%
O=C1CCSCC(C(=O)N2CCC(O)CC2)N1 (centres undefined)	-10.8%
O=C1CCSCC(C(=O)N2CCC3(CC2)OCCO3)N1 (centres undefined)	-14.2%
Cc1csc(NC(=O)C2CSCCC(=O)N2)n1 (centres undefined)	-0.709%
CNC(=O)Cc1csc(NC(=O)C2CSCCC(=O)N2)n1 (centres undefined)	14.7%
Cn1nnc2c(N3CC(C(=O)NCc4ccccc4F)C3)ncnc21	-8.25%
CCCc1nnsc1C(=O)NCC(O)c1ccoc1 (centres undefined)	-11.2%
O=C(NCC(O)c1ccoc1)Nc1cccs1 (centres undefined)	-6.41%
O=C(NCC(O)c1ccoc1)Nc1c(F)cccc1F (centres undefined)	-9.03%
CCOc1ccccc1C(=O)NCCc1ccoc1	-13.5%
COC(=O)c1sccc1S(=O)(=O)NCCc1ccoc1	-5.25%
O=C(c1ccc2[nH]cnc2c1)N1CCC(Oc2ccccn2)CC1	1.58%
CN1CCCC(C(=O)N2CCC(Oc3ccccn3)CC2)C1 (centres undefined)	-7.47%

SMILES	cytotoxicity at 70.5 h
Cc1noc(C)c1S(=O)(=O)N1CCC(Oc2ccccn2)CC1	10%
CCOC(=O)N1CCC(Oc2ccc(C(F)(F)F)cn2)CC1	-7.88%
O=C(Cn1cccn1)N1CCC(Oc2ccc(C(F)(F)F)cn2)CC1	-0.904%
CN(CC(=O)N1CCC(Oc2ccc(C(F)(F)F)cn2)CC1)S(C)(=O)=O	0.51%
O=C(CCn1ccc(=O)[nH]c1=O)N1CCC(Oc2ncccc2Cl)CC1	-6.14%
O=C(NCc1ccccc1)N1CCC(Oc2ncccc2Cl)CC1	11%
O=S(=O)(c1cc(F)cc(F)c1)N1CCC(Oc2ccc(Cl)cn2)CC1	2%
N#Cc1cccnc1OC1CCN(C(=O)NCc2ccccc2)CC1	-4.78%
N#Cc1cccnc1OC1CCN(S(=O)(=O)c2c(F)cccc2F)CC1	39.9%
N#Cc1ccc(OC2CCN(C(=O)c3ccccc3Cl)CC2)nc1	-5.83%
CN1CCCC(C(=O)N2CCC(Oc3ncccn3)CC2)C1 (centres undefined)	-4.47%
Cc1noc(C)c1S(=O)(=O)N1CCC(Oc2cccnn2)CC1	-0.269%
O=C(c1cc(C2CC2)on1)N1CCC(Oc2ncccc2Br)CC1	-13.4%
CC(=O)Nc1cnc(Oc2ccccc2F)nc1	-5.65%
O=C(c1ccccn1)N1CCN(c2ccc(-n3cccc3)nn2)CC1	-4.16%
COCC(=O)N1CCN(c2cc(-n3cccc3)nc(C)n2)CC1	5.98%
Cc1nc(N2CCN(C(=O)c3cccs3)CC2)cc(-n2cccc2)n1	1.27%
Cc1nc(N2CCN(C(=O)c3cccnc3)CC2)cc(-n2cccc2)n1	4.9%
Cc1cncc(C(=O)N2CCCC3(CCCN3S(C)(=O)=O)C2)c1 (centres undefined)	-8.81%
O=C(c1ccco1)N1CCC2(CC1)C(=O)Nc1ccccc12	-9.22%
O=C1CC2(CCN(Cc3cccs3)C2)CN1c1cccc(F)c1 (centres undefined)	-11%
CS(=O)(=O)N1CCCC12CCCN(C(=O)c1ccc3[nH]ccc3c1)C2 (centres undefined)	-10.6%
CN(C)CC(=O)N1CCC2(CC1)COCCN(c1ncccn1)C2	22.5%

SMILES	cytotoxicity at 70.5 h
Cc1ccc2c(n1)N(CCn1cccn1)CCN(C(=O)NC(C)C)C2	21.7%
Cc1cnc(C(=O)N2CCc3ncnc(-c4cnn(C)c4)c3CC2)cn1	0.39%
Cn1cc(-c2ncnc3c2CCN(C(=O)c2cnccn2)CC3)cn1	1.04%
Cc1noc(C2CCC3(CCN(C(=O)c4cc(C5CC5)on4)CC3)O2)n1 (centres undefined)	-0.565%
O=C1CCCN1Cc1ncn2c1CN(C(=O)Cc1cccs1)CCC2	-1.17%
CCn1ncc2c1C(COC)CN(Cc1nccs1)C2 (centres undefined)	30.6%
CCOCC1CN(Cc2ccsc2)Cc2cnn(C)c21 (centres undefined)	-0.486%
CCn1ncc2c1C(COC)CN(Cc1ccco1)C2 (centres undefined)	3.48%
CNC(=O)[C@@]12CCC3(CCN(C(=O)COC)CC3)[C@@H]1CN(S(C)(=O)=O)C2	4.47%
COCc1ncn2c1CN(C(=O)c1ccco1)CC2	1.28%
COCCO[C@H]1CCN(Cc2cnn(C)c2)[C@H]1Cc1cccnc1	-3.42%
COCCO[C@H]1CCN(Cc2ccoc2)[C@H]1Cc1cccnc1	-0.128%
Cc1ccc(NC2CCN(C(=O)c3cncnc3C)CC2)nn1	14.7%
COc1cccc(CNCc2c(C(C)C)nn(C)c2N(C)C)c1	1.8%
COc1cc(CNCCc2cnn(C)c2)cc2c1OCO2	-8.59%
Cc1cc(C)c(CNC(=O)NCCC2CCCO2)c(=O)[nH]1 (centres undefined)	-2.77%
O=C(NCc1cccnc1)Nc1cc(C(F)(F)F)c[nH]c1=O	-9.57%
COc1ccc(OC)c(CNCc2c(C(C)C)nn(C)c2N(C)C)c1	-3.06%
Cc1cc(CN2CCOC(Cn3nc(C)cc3C)C2)on1 (centres undefined)	-5.48%
O=C(c1cccnc1N1CCOCC1)N1CCCC(n2cccn2)C1 (centres undefined)	-5.6%
Cc1nnc2n1CCN(C(=O)c1cc(Br)c[nH]1)C2	-5.46%
Cc1csc(NC(=O)CN2CCCC(Cn3nc(C)nc3C)C2)n1 (centres undefined)	-7.51%
Cc1cc(C)c(CNC(=O)CC2CCCO2)c(=O)[nH]1 (centres undefined)	-3.05%

SMILES	cytotoxicity at 70.5 h
Cc1ccc(NC2CCN(C(=O)c3ccoc3C)CC2)nn1	-0.801%
Cc1noc(C)c1C(=O)N1CCC(Nc2cccnn2)CC1	0.523%
CC(C)(C)c1cccc(OCC(=O)NS(=O)(=O)c2cccnc2)c1	21.7%
COc1ccc(OCCNCc2c(C)nn(C)c2N(C)C)cc1	31.1%
O=C(c1ccccn1)N1CCC2(CC1)C(=O)Nc1ccccc12	-9.49%
O=C(CC1CC1)N1CC[C@H]2OCC[C@@]2(COc2ncccc2F)C1	-21.5%
O=C1CCCN1Cc1ncn2c1CN(C(=O)N1CCCC1)CCC2	0.134%
CCS(=O)(=O)N1Cc2ncn(CC3CC3)c2C(COCC2CC2)C1 (centres undefined)	1.64%
CCS(=O)(=O)N1CCN(CCn2cccn2)c2nc(C)ccc2C1	-2.39%
CN(C)C(=O)N1CCC2(CCCN(c3ncccn3)C2)C1 (centres undefined)	5.18%
CC(C)N1CCC2(CC1)CC(NS(C)(=O)=O)c1ccccc1O2 (centres undefined)	4.16%
Cc1ccsc1CN1C[C@@H]2COC[C@]2(COCC(=O)N(C)C)C1	-0.655%
CN(C)C(=O)COC[C@]12COC[C@H]1CN(CCc1ccccc1)C2	-1.91%
COCc1ncn2c1CN(C(=O)c1cccc3cccnc13)CC2	19.6%
CC(C)NC(=O)c1ccc2c(c1)C1(CCN(C(C)C)CC1)C(=O)N2	0.266%
CC(C)COC[C@@H]1CC[C@H]2[C@H](CCN2C(=O)c2ccncc2F)O1	1.98%
O=C(NCC1CCOCC1)[C@@H]1CC[C@@H]2[C@@H](CCN2Cc2ccncc2)O1	-0.695%
Cn1ccnc1C(=O)NCc1cnc2n1CCN(CC1CC1)CC2	-0.996%
CN1CCc2cc(C(=O)N(C)C)c(NCC3CC3)nc2CC1	-1.63%
Cc1nc(CN2CC[C@@H](OCC3CC3)[C@@H]2Cc2cccnc2)cs1	-0.893%
CN(C)CCOCC1CN(Cc2ccncc2)Cc2nnn(C)c21 (centres undefined)	1.9%
CN(C)CCN1CCN(Cc2cccc(C#N)c2)Cc2cccnc21	-2.4%
